# Where two headings read alike, the source gives them in different places.
# Legend:
# [1] = cited from earlier work
# [2] = system: fat cells; conditions: cited from earlier work
# [3] = system: cellulite and adiposities; experiment: Study of efficacy of topically delivered DMSO for eliminating cellulite and adiposities; format: in vivo, human
# Source text: This study was exclusively designed to determine the efficacy and safety of DMSO delivered in several manners and in different concentrations for eliminating cellulite and adiposities.
# This is a multicentric, prospective, longitudinal study, where clinical and instrumental parameters are used to detect results regarding different formulations and application forms performed. It is not possible to perform a double-blind study with placebo due to the strong odor of DMSO present in formulations, easy to identify.
# A group of 145 subjects, with ages ranging from 18 to 55 years (average 36.5 y.o.), having cellulite for at least 2 years, were recruited from April, 2008 until July, 2008.
# Inclusion criteria were: presence of cellulite (stages 1, 2, 3, and 4) in subjects of groups A and B; accentuated abdominal fat in the subjects of the group C; age ranging from 18 to 55 years old and interest in entering the study.
# Exclusion criteria were: after liposculpture, other treatments anti-cellulite ongoing or 30 days before entering the study, pregnant and nursing women, cancer, people with hormonal alterations, endocrinological disorders, and people under hormonal or endocrinal treatment.
# (§1) 145 subjects were randomized in 3 groups and received 3 different treatments according to established method. Group A entered 29 female subjects having Dermal Paniculopathy (cellulite) stages 1 and 2, Group B entered 58 female subjects with Dermal Paniculopathy (cellulite) stages 3 and 4, and Group C entered 58 subjects, 35 female and 23 male, all having pronounced abdominal fat.
# (§2) The three products were formulated as follows: group A consisted in an aqueous solution of DMSO at 20% and aerosol spray to 5%, group B consisted in an aqueous solution of DMSO at 50% and aerosol spray 5%, and group C consisted in an aqueous solution of DMSO at 90% and aerosol spray at 5%.
# The aqueous solution was used in the massage applied before the delivery of spray. Each massage session lasted 45 minutes in average.
# After massage, the spray was applied at 30 cm (11.80 in) of distance for approximately 5 seconds in each site.
# After the procedure as above, a drainage massage was applied for 20 minutes.
# In total, each session last 1 hour and 30 minutes in average.
# Two sessions were applied per week during 5 weeks.
# All subjects were analyzed at the end of each session, and especially after the 10 sessions.
# Evaluation methods were: digital photographs (before and after), clinical observation, measurement of thigh circumference, pinching test (for pain), measurement of fat with plicometer/adipometer, measurement of abdominal circumference, measurement of hips and waist circumference, and questionnaire with questions about swelling, pain and heaviness in the legs, cellulite appearance, weight, general efficacy of the product, tolerability, satisfaction with the treatment, sensation of wellbeing, increased diuresis, urine color, among others.
# [4] = parameters: species or system human; conditions: in vivo
# Source text: as §1, §2
# The aqueous solution was used in the massage applied before the delivery of spray. Each massage session lasted 45 minutes in average. […]
# Adverse reactions commonly reported in a period of 2 hours right after the application were: nausea (27 subjects or 19%), headache (15 subjects or 11%), feeling of burn in application site (11 subjects or 8%), itch and redness in application site (14 subjects or 10%), hypotension (7 subjects or 5%), odor and taste similar to garlic or corn (136 subjects or 98%), dry mouth (32 subjects or 23%), increased diuresis (98 subjects or 70%), strong urine color and odor (68 subjects or 49%). These reactions were evaluated as light and transitory.
# [5] = system: adipocytes (fat cells); experiment: Adipocytes destroyed per application of DMSO; format: in vivo
# [6] = cited from earlier work; remark: listed apart in the source
# [7] = cited from earlier work; remark: listed apart in the source
# [8] = system: serum cholesterol; conditions: cats, given with water along with a cholesterol-based diet; cited from earlier work
# [9] = system: cyclic AMP phosphodiesterase; conditions: present in fat cells; high concentrations; cited from earlier work
# [10] = humans, after DMSO administration
# [11] = humans, dermal delivery of a DMSO solution at 70%
# [12] = % of subjects in this category after 10 topical sessions
# [13] = % of subjects in this category after 10 topical sessions, regular diet and physical activities kept
# [14] = reports among subjects with accentuated venous insufficiency and varicose veins (30% of 139)
# [15] = humans, plasma, dermal delivery of a DMSO solution at 70%
# [16] = topical DMSO 80%, gram/kg per day, 60 subjects, 14 days
smiles,measurement,setting,value
"CS(C)(=O)=O [DMSO2, Dimethyl sulphona]",time DMSO2 persisted in plasma,[1]; [10],approximately 400 hours
same,time at which DMSO2 appeared in plasma,[1]; [10],48 h
same,Excretion of DMSO2,"[1]; humans, dermal administration of DMSO",21-23%
same,duration of urinary excretion of DMSO2,[1]; [11],456 h
same,plasmatic levels of DMSO2 after 312 hours,[1]; [11],low but still detectable
same,time at which urinary excretion of DMSO2 became more significant,[1]; [11],approximately 8 hours
same,time of maximum plasmatic levels of DMSO2,[1]; [11],60 to 70 h
same,total average amount of DMSO2 excreted in urine,[1]; [11],17.8 % dose of DMSO
same,Excretion of DMSO2,"[1]; humans, oral administration of DMSO",5-10%
same,accumulation of cyclic AMP due to norepinephrine,[2],did not cause any changes
"C[S+](C)[O-] [DMSO, Dimethyl Sulfoxide]",General satisfaction after all 10 sessions: Bad,[3]; % of subjects in this category,0%
same,General satisfaction after all 10 sessions: Excellent,[3]; % of subjects in this category,72%
same,General satisfaction after all 10 sessions: Good,[3]; % of subjects in this category,6%
same,General satisfaction after all 10 sessions: Great,[3]; % of subjects in this category,22%
same,General satisfaction after all 10 sessions: Regular,[3]; % of subjects in this category,0%
same,Abdominal circumference reduction: 3.1-5 cm,[3]; [12],39%
same,Abdominal circumference reduction: 5.1 cm and more,[3]; [12],29%
same,Abdominal circumference reduction: Up to 3 cm,[3]; [12],32%
same,Diuresis improvement: Bad,[3]; [12],0%
same,Diuresis improvement: Excellent,[3]; [12],28%
same,Diuresis improvement: Good,[3]; [12],25%
same,Diuresis improvement: Great,[3]; [12],39%
same,Diuresis improvement: Regular,[3]; [12],8%
same,General efficacy: Bad,[3]; [12],0%
same,General efficacy: Excellent,[3]; [12],74%
same,General efficacy: Good,[3]; [12],9%
same,General efficacy: Great,[3]; [12],17%
same,General efficacy: Regular,[3]; [12],0%
same,General feeling of improvement: Bad,[3]; [12],0%
same,General feeling of improvement: Excellent,[3]; [12],78%
same,General feeling of improvement: Good,[3]; [12],10%
same,General feeling of improvement: Great,[3]; [12],12%
same,General feeling of improvement: Regular,[3]; [12],0%
same,Hip circumference reduction: 2.6-4.5 cm,[3]; [12],43%
same,Hip circumference reduction: 4.5 cm and more,[3]; [12],26%
same,Hip circumference reduction: Up to 2.5 cm,[3]; [12],31%
same,Improvement from orange peel skin appearance: Bad,[3]; [12],0%
same,Improvement from orange peel skin appearance: Excellent,[3]; [12],76%
same,Improvement from orange peel skin appearance: Good,[3]; [12],11%
same,Improvement from orange peel skin appearance: Great,[3]; [12],13%
same,Improvement from orange peel skin appearance: Regular,[3]; [12],0%
same,Mood improvement: Bad,[3]; [12],0%
same,Mood improvement: Excellent,[3]; [12],26%
same,Mood improvement: Good,[3]; [12],33%
same,Mood improvement: Great,[3]; [12],41%
same,Mood improvement: Regular,[3]; [12],0%
same,Reduced pain in cellulite sites: Bad,[3]; [12],0%
same,Reduced pain in cellulite sites: Excellent,[3]; [12],21%
same,Reduced pain in cellulite sites: Good,[3]; [12],39%
same,Reduced pain in cellulite sites: Great,[3]; [12],27%
same,Reduced pain in cellulite sites: Regular,[3]; [12],13%
same,Thigh circumference reduction: 2.1-4 cm,[3]; [12],48%
same,Thigh circumference reduction: 4.1 cm and more,[3]; [12],24%
same,Thigh circumference reduction: Up to 2 cm,[3]; [12],28%
same,well-being: Bad,[3]; [12],5%
same,well-being: Excellent,[3]; [12],20%
same,well-being: Good,[3]; [12],28%
same,well-being: Great,[3]; [12],44%
same,well-being: Regular,[3]; [12],3%
same,Weight loss: 2.1-3 kg,[3]; [13],44%
same,Weight loss: 3 kg and more,[3]; [13],25%
same,Weight loss: Up to 2 kg,[3]; [13],31%
same,Decreased and whitened macrovaricose veins,[3]; [14],39%
same,"Decreased pain in legs, arms and hands",[3]; [14],62%
same,Decreased swelling and heaviness in the legs,[3]; [14],73%
same,Decreased tingling legs and arms,[3]; [14],55%
same,Discontinuation of treatment due to adverse reactions,[4],No patient discontinued the treatment due to adverse reactions
same,amount of adipocytes destroyed per session/application,[5],"50,000-500,000 cells"
same,dose excreted in the air as dimethyl sulfide,[1]; estimate of Kolb et al. (1965),approximately 3 % of the dose
same,dose recovered in urine,"[1]; humans, 1 g/kg dermally, fluid form and gel form, 10 subjects each",less than 10 % of the dose
same,Urinary excretion of DMSO,"[1]; humans, dermal administration",30-68 % of the dose
same,Total urinary excretion of DMSO (average),[1]; [11],13 % dose
same,dose accounted for by urinary excretion of DMSO and DMSO2 (average),[1]; [11],30.8 % dose
same,duration of urinary excretion of DMSO,[1]; [11],48 h
same,time of maximum plasmatic levels of DMSO,[1]; [11],4 to 8 h
same,time of peak of plasmatic levels,"[1]; humans, dermally administered",4 to 8 h
same,Urinary excretion of DMSO,"[1]; humans, oral administration",approximately 13 % of the dose
same,time to plasma peak,"[1]; humans, orally administered",≤ 4 h
same,half-life,[1]; [15],11 to 14 h
same,time after which DMSO could not be detected any longer,[1]; [15],36 to 48 h
same,time after which serum levels of DMSO were undetectable,[1]; humans,120 h
same,share of excretion via air,[1]; in vivo,less than 3%
same,eosinophilia,[6]; DMSO at 80% gram/kilogram per day topically for 14 days and 90 days,can cause eosinophilia
same,ocular adverse effect,[6]; subjects receiving topical solution,No ocular adverse effect was observed
same,dizziness,[6]; [16],18%
same,"dry nasal passages, dry or painful throat and cough",[6]; [16],Less than 5%
same,headache,[6]; [16],42%
same,sedation,[6]; [16],52%
same,duration of odor similar to garlic in the body,[6]; topical application,up to 72 hours
same,teratogenic effects,[7]; animals exposed,Teratogenic effects were observed
same,ocular findings in animals,[7]; studies in animals,changes to lenses
same,prevention of expected increase of serum cholesterol,[8],50%
same,time at which increase of cyclic AMP due to DMSO was detected,"[2]; after addition of the lipolytic agents, 1.10 M DMSO",40 s
same,"increase of lipolysis due to glucagon, norepinephrine or theophylline",[2],potentialized
same,lipolysis,[2],increased
same,oxidation of glucose stimulated by insulin,[2],decreased
same,"activity of cyclic AMP phosphodiesterase, soluble and particulate",[9],inhibited
CSC [dimethyl sulfide],accumulation of cyclic AMP due to norepinephrine,[2],did not cause any changes

# Reference: patent US20130253069A1, “Use of DMSO for Destroying Adipocytes and Eliminating Cellulite and Adiposities” (priority 2010, published 2013)
